Here are results for one compound from patent US20230226002A1, “RETINAL BIOA[…] SYNTHETIC VERY-LONG-CHAIN POLYUNSATURATED FATTY ACIDS” (University of Utah Research Foundation, priority 2020, published 2023).

Series [1] can be described thus: Single dose gavage bioavailability, GC-MS of serum and tissues. The series is classed as in vivo, WT mice (C57BL/6J). The conditions noted are these: single oral gavage dose of 6 mg, mice. As for the experimental part: WT mice (C57BL/6J) mice have been used in this study for single dose gavage, repeated dose gavage and optomotry experiments. VLC-PUFA liposomes have been prepared using liposome kit (0.05%) with an addition of alpha-tocopherol (VE) (0.025%) to prevent oxidation. Three month old WT mice were gavage fed with VLC-PUFA liposomes. A dose of 6 mg/mice/day was used, half the dosage used for DHA by previous studies (Jiang, et al. (2009) The Journal of Nutritional Biochemistry 20: 735-741; Hacioglui, et al. (2007) Neurobiology of Learning and Memory 87: 159-165). The mice were gavage fed and sacrificed at time intervals (n=4/time point) of 2, 4, 8, and 24 hr to harvest the blood and other tissues. Eyes were dissected under the microscope to separate retina from RPE. One pair of retina/mouse have been used for lipid extraction as described in the procedure elsewhere. Blood was centrifuged for 5 min at 7500 rpm to separate serum from RBC. Serum, RBC, liver, retina and RPE have been used for lipid extractions and GC-MS analysis.
(§1) Serum, RBCs, orbital adipose tissue, and retina punches, were extracted using the procedure previously adopted (Liu, et al. (2013) J. Chromatogr. A 1307: 191-200). The samples and internal standards (50 μg of tridecanoic acid and 1.15 μg of hentriacontanoic acid) were added in 2 ml stainless steel vials and then homogenized with 0.7 ml silica beads and 1 ml hexane-isopropanol (3:2 v:v) by a Mini Bead Beater-16 (BioSpec Products Inc., Bartlesville, Okla., USA) and a Sonic Dismembrator Model 100 (Fisher Scientific, Pittsburgh, Pa., USA). The homogenized samples were bath sonicated for 5 min in an ice water bath. After centrifugation at 10,000 rpm for 5 min, the extracted solution supernatant was transferred to a clean vial and then dried under a stream of nitrogen. The dried film was dissolved in 200 μl hexane, and 2 ml of 4% HCl in methanol was added. The tubes were flushed with argon and incubated at 80° C. for 4 hr to form FAMEs (Liu, et al. (2013) J. Chromatogr. A 1307: 191-200) and then allowed to cool. The FAME mixture was extracted three times with 1 ml distilled water and 2 ml hexane. The hexane layers were combined and dried under nitrogen gas.
(§2) Silica gel, glass-encased, solid-phase extraction cartridges were subsequently used to clean the FAME extracts. The cartridge was activated with 6 ml of hexane before loading samples. The crude FAME extract was dissolved in 200 μl of hexane and loaded onto the activated cartridge. The cartridge was washed with 6 ml hexane, and the eluate was discarded. FAMEs were eluted from the cartridge with 5 ml hexane:ether (4:1), and the eluate was evaporated under nitrogen gas. The dry film was dissolved in 200 μl of hexane and centrifuged for 3 min at 14,000 rpm to remove particles prior to GC-MS analysis. 1 μl of sample was injected into the GC-MS instrument for LC-PUFAs analysis. For VLC-PUFAs analysis, the sample was dried with nitrogen again and re-dissolved in 20 μl of n-nonane, and 5 μl samples were injected into the GC-MS instrument.
(§3) The Thermo Trace GC-DSQ II system (ThermoFisher Scientific, Waltham, Mass., USA) consists of an automatic sample injector (AS 3000), gas chromatograph (GC), single quadrupole mass detector, and an analytical workstation. The chromatographic separation was carried out with an Rxi-5MS coated 5% diphenyl/95% dimethyl polysiloxane capillary column (30 m×0.25 mm i.d, 0.25 μm film thickness) (Restek, Bellefonte, Pa., USA). Two methods (A and B) were used for detection and quantitation of LC-PUFAs and VLC-PUFAs, respectively as previously published (Liu, et al. (2013) J. Chromatogr. A 1307: 191-200). Bovine retina VLC-PUFAs were extracted and employed as VLC-PUFA standards to establish retention times because commercial standards are not available, and identification of each VLC-PUFA in retinal samples was achieved as described in prior work (Liu, et al. (2010) J. Lipid Res. 51: 3217-3229).

Series [2] can be described thus: Repeated dose gavage for 15 days, GC-MS of serum and tissues. Particulars: gavage 15 days. The series is classed as in vivo, WT mice (C57BL/6J). As to the method:
Repeated dose gavage. VLC-PUFA liposomes were gavaged to three month old WT mice for 15 days. The mice were divided into three groups (n=4/group), Group 1 was fed with liposomes prepared with PC and alpha-tocopherol, Group 2 was fed with liposomes prepared with PC, VE, and 1 mg VLC-PUFAs and Group 3 was fed with liposomes with PC, VE and 2 mg VLC-PUFAs. Mice were sacrificed at the end of the experiment and organs were harvested, extracted for lipids and analyzed by GC-MS using the procedure mentioned elsewhere.
as §1, §2, §3

Series [3] in a line: DSPC flip-flop kinetics by sum-frequency vibrational spectroscopy. Particulars: 0.1 mol % VLC-PUFA in DSPC vs pure DSPC, about 46° C. The series is classed as physicochemical. As to the method: Planar supported lipid bilayers (PSLBs) used in this study were prepared using the Langmuir-Blodgett/Langmuir-Schaefer (LB/LS) method, the details of which are presented elsewhere (Liu and Conboy (2009) Vib. Spectrosc. 50: 106-115). Briefly, the cleaned SiO2 prisms were submerged in PBS. Afterwards, 0.1 mol % VLC-PUFA in DSPCd70 was spread over the air/water interface and allowed to thermally equilibrate for 15 minutes. Afterwards, the monolayer was compressed to 30 mN/m at a rate of 4 mm/min, and the surface pressure was allowed to stabilize for another 5 minutes. The prism was then withdrawn at a rate of 3 mm/min to deposit the LB layer. The subphase was removed, and the trough was cleaned using methanol, isopropanol, and water. […]
Following bilayer assembly, the flow-cell was flushed with PBS in D2O to eliminate any spectral interference from the 0-H bands from water. […] The flip-flop rates of DSPC were determined from the decay of methyl symmetric stretch mode (CH3 vs) for an asymmetrically prepared VLC-PUFA:DSPC membrane in which on leaflet contained dueterated DSPCd70 and DSPC. As DSPC lipid exchange between leaflets, the intensity of the CH3 vs decreases over time due to flip-flop and the rate of exchange is determined by fitting the data to ICH3(t)=Imin+Imaxe^−4kt, the results of which are presented in FIG. 2B. The half-lives of flip-flop were calculated using […]

In another series the test system is WT mice (C57BL/6J). The series is described as follows: Optomotry/Visual behavior test after repeated dose gavage. The format is in vivo. Particulars: 2 mg/day for 15 days by gavage, compared to controls. As to the method:
Optomotry/Visual behavior test. Repeated dose gavage fed mice were tested for visual behavior to observe the effect of VLC-PUFA on vision. Since the optomotry tests could be manipulative, all the analysts were double blinded. 3 month-old mice were employed to test spatial visual acuity using the OptoMotry system (Cerebral Mechanics, Lethbridg, AB, Canada). Briefly, individual mice were placed on a platform centered in a quad-square formed by four inward facing computer screens, and their movements were monitored by an overhead video camera. Photopic measurements were conducted under illuminance of around 165 lux. […] During the detection of spatial frequency threshold, the rotation speed and contrast were kept at 12°/s, and 100%, respectively, while the frequency was kept at 0.19 cycle/degree in the examination of contrast sensitivity. All experiments had concurrent control mice fed with placebo chow.

Series [4] is described as follows: π-A isotherms of VLC-PUFA in DSPC lipid monolayers (Langmuir trough). The series is classed as physicochemical. As to the method:
Pressure-area (π-A) isotherms were collected using a Langmuir trough (KSV, Helsinki, Finland). PBS was used as the subphase for all isotherms. Stock solutions of pure VLC-PUFA, pure DSPC, and DSPC containing 0.1 mol %, 1 mol %, or 10 mol % VLC-PUFA were spread at the air/water interface and allowed to equilibrate for 15 minutes prior to compression to allow for solvent evaporation. The monolayers were compressed at a rate of 2 mm/min at 22±1° C. and repeated in triplicate. The averaged isotherms were smoothed using a 100-point rolling average. The MMA of mixture of VLC-PUFA in DSPC layers was calculated by the formula: MMADSPC+VLC-PUFA=MMADSPCXDSPC+MMAVLC-PUFAXVLC-PUFA, where the X is mol fraction of DSPC and VLC-PUFA in membrane.
After developing an efficient synthetic route to producing VLC-PUFAs, their previously unexplored biophysical properties were studied, including their impact on membrane packing and compressibility as well their influence on membrane dynamics, particularly lipid flip-flop. […] The changes imparted by VLC-PUFAs on lipid packing and the compression moduli of model membranes were evaluated from π-A isotherms of 32:6 n-3 in 1,2-distearoyl-sn-3-glycero-phosphocholine (DSPC) lipid monolayers (FIG. 2A). […]

Where [5] appears, read: 1 and 2 mg/day groups vs control mice (undetectable).
Where [6] appears, read: both 1 and 2 mg/day groups vs 0 mg/day controls, mice.

Consider `CC/C=C\C/C=C\C/C=C\C/C=C\C/C=C\C/C=C\CCCCCCCCCCCCC(=O)O` [32:6 n-3, (14Z,17Z,20Z,23Z,26Z,29Z)-dotriaconta-14,17,20,23,26,29-hexaenoic acid], for which, in series [1] (4-8 hr after gavage), the “32:6 n-3 level in RPE” value is “significant increase” and the “32:6 n-3 level in retina” value was “significant increase”. In series [1] (serum), the “time until serum VLC-PUFAs became detectable” value is not above 2 h. Moreover, the “serum VLC-PUFA concentration course after the first detection” value in series [1] (serum, over the next 24 hr) is reported as “reached a lower steady-state concentration”. Besides, in series [1] (throughout the 24 hr-period), the VLC-PUFAs in brain result is “undetectable”, the VLC-PUFAs in liver result is listed as “undetectable” and the “VLC-PUFAs in red blood cell (RBC) membranes” value is reported as “undetectable”. In series [2] (setting [5]), the “RBC VLC-PUFAs” value is reported as “significant increase” and the “serum VLC-PUFAs” value is “significant increase”. Also, in series [2] (1 and 2 mg/day, mice), the VLC-PUFAs in brain result is on record as “no VLC-PUFAs were detectable” and the VLC-PUFAs in liver result is “detectable levels of VLC-PUFAs only in the 2 mg/day group”. For the same compound, in series [2] (setting [6]), the “increase of VLC-PUFA levels in RPE” value amounted to 7 fold and the “increase of VLC-PUFA levels in retina” value was found to be 2 fold. Besides, the “toxic symptoms or behavioral changes” value in series [2] (treatment groups compared to the control group, mice) was “toxic symptoms or behavioral changes were observed”. In addition, the “increase of the DSPC flip-flop rate” value in series [3] came out at 4 fold. In addition, in the series with WT mice (C57BL/6J), the “contrast sensitivity (rod function)” value is given as “improved significantly” and the “visual acuity (cone function)” value is “improved significantly”. In series [4] (0.1 mol % VLC-PUFA in DSPC membranes), the “elasticity of DSPC membranes” value is “high elasticity”. The “shift of π-A isotherm / mean molecular area (MMA) of the lipids” value in series [4] (0.1 mol %, 1 mol % and 10 mol % VLC-PUFA in DSPC monolayer, PBS pH 7.4 subphase, 22° C.) was “shifted the π-A isotherm to higher MMAs”.
